One molecule from patent publication US9549942B2, “Composition for preventing or treating degenerative brain diseases including compound downregulating expression of BACE1 proteins” (RESEARCH & BUSINESS FOUNDATION SUNGKYUNKWAN UNIVERSITY, priority 2013, dated 2017) can be followed below.

One assay relates to BACE1 proteins. As to the kind of experiment: BACE1 protein expression under oxidative stress (HNE) conditions of brain nerve cells (Western blot). The class given is cell-based, human. To be noted: SH-SY5Y cells pretreated 24 hours at 1, 5 and 10 μM, then HNE. Here is the method: In order to determine an influence of chlorhexidine and thioguanosine of the present disclosure on an amount of BACE1 expression under oxidative stress conditions of brain nerve cells, the following experiment was performed. Brain nerve cells, SH-SY5Y cells, were pretreated with chlorhexidine and thioguanosine at 1 μM, 5 μM, and 10 μM for 24 hours. Then, an oxidative stress substance HNE (4-hydroxynonenal) was applied to the SH-SY5Y cells, and a change in the amount of BACE1 proteins was determined by Western blot. A change in an amount of BACE1 mRNA was determined by real-time PCR.

Assay [1] concerns BACE1 mRNA. As to the kind of experiment: BACE1 mRNA under oxidative stress (HNE) conditions of brain nerve cells (real-time PCR). The settings on record: SH-SY5Y cells pretreated 24 hours at 1, 5 and 10 μM, then HNE. The class given is cell-based, human. As to the method: In order to determine an influence of chlorhexidine and thioguanosine of the present disclosure on an amount of BACE1 expression under oxidative stress conditions of brain nerve cells, the following experiment was performed.
Brain nerve cells, SH-SY5Y cells, were pretreated with chlorhexidine and thioguanosine at 1 μM, 5 μM, and 10 μM for 24 hours. Then, an oxidative stress substance HNE (4-hydroxynonenal) was applied to the SH-SY5Y cells, and a change in the amount of BACE1 proteins was determined by Western blot. A change in an amount of BACE1 mRNA was determined by real-time PCR.
In this regard, in FIGS. 9 and 10, asterisks (**) indicate a significant (p≦0.01) increase of BACE1 mRNA expression relative to control. Similarly, number signs (##) indicate a significant (p≦0.01) decrease, and number signs (###) indicate a significant (p≦0.001) decrease in BACE1 mRNA expression relative to oxidative stress conditions.

The next assay relates to Aβ. As to the kind of experiment: Generation of Aβ in brain cortex, immuno staining. The class given is in vivo. The settings on record: 3×Tg-AD mouse, 25 mg/kg orally every day for 4 weeks. Here is the method:
(§1) As an Alzheimer's dementia animal model, 3×Tg-AD mice were used. The 3×Tg-AD mouse is a mouse having overexpressed presenilin, amyloid precursor protein (APP), and Tau genes, which are frequently found in Alzheimer's dementia. The 3×Tg-AD mouse is an animal model that is widely used for research on Alzheimer's dementia (Oddo S. et al, 2003, Neuron, 39, 409-421). 25 mg/kg of chlorhexidine was orally administered every day for 4 weeks; and 0.1 mg/kg and 0.5 mg/kg of thioguanosine were orally administered every day for 8 weeks to 6-month old 3×Tg-AD mice. A Morris water maze test was used to evaluate the effects of chlorhexidine and thioguanosine administration on the mice.
From the 3×Tg-AD mouse to which chlorhexidine was administered in Example 4a brain was extracted. A […] frozen section was prepared from the extracted brain using a microtome. Then, generation of Aβ was measured using immuno staining or a human amyloid 13 (1-40) assay kit (IBL) and a human amyloid β (1-42) assay kit (IBL). FIGS. 20 and 21 show the results.

For assay [2], the system named is BACE1 mRNA. As to the kind of experiment: BACE1 mRNA in brain of Alzheimer's dementia animal model (real-time PCR). The class given is in vivo. The settings on record: 3×Tg-AD mouse, 25 mg/kg orally every day for 4 weeks. As to the method:
as §1
From the 3×Tg-AD mouse to which chlorhexidine was administered in Example 4a brain was extracted. The extracted brain was lysed using a tissue lysis buffer and RNA was extracted using Trizol. The amount of BACE1 expression was determined by Western blot and real-time PCR. FIGS. 18 and 19 show the results.

Structures are written as SMILES.

Consider `[H]/N=C(\N/C(=N/[H])NCCCCCCNC(=N)NC(=N)Nc1ccc(Cl)cc1)Nc1ccc(Cl)cc1` [chlorhexidine, N′,N′″″-hexane-1,6-diylbis[N-(4-chlorophenyl)(imidodicarbonimidic diamide)]], for which the “increase in the amount of expression of BACE1 proteins due to oxidative stress” value with BACE1 proteins is “decreased at 5 μM and 10 μM”. Moreover, the “increase in the amount of BACE1 mRNA due to oxidative stress” value with BACE1 mRNA [1] was “decreased at 1 μM and at 5 μM”. Moreover, the “generation of Aβ in cortex part of brain” value with Aβ is reported as “lower generation of Aβ than that of the control group”. Moreover, the “amount of BACE1 mRNA in brain” value in the assay on BACE1 mRNA [2] is listed as “lower amount of BACE1 mRNA than that of the control group”.
